Measurements from patent US20240246964A1 (Arbutus Biopharma Corporation, priority 2021, published 2024).

What was measured:
[1] = biological target: PD-L1 His protein / PD-1 Fc protein (Homo sapiens (Human), UniProt Q9NZQ7); assay: HTRF Assay (PD-1/PD-L1 interaction); type: binding; settings: PD-L1 His 6 nM, PD-1 Fc 6 nM
[2] = biological target: human PD-L1 (Homo sapiens (Human), UniProt Q9NZQ7); assay: T cell activation luciferase reporter cell culture system (T Cell Activation Assay); type: cell-based; settings: luciferase reporter assay; PD-L1 aAPC/CHO-K1 cells with PD-1 effector Jurkat T cells
Sequence of human PD-L1 (Q9NZQ7 19-290): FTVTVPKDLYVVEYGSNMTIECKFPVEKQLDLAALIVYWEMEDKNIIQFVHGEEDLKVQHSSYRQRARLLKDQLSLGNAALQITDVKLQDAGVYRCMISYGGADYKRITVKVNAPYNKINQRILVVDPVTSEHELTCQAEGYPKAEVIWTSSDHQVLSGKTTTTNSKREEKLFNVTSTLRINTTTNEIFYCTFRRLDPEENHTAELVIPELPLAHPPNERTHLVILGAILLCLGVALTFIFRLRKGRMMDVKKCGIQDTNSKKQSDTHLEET

Sequence of PD-L1 His protein / PD-1 Fc protein (Q9NZQ7 19-238): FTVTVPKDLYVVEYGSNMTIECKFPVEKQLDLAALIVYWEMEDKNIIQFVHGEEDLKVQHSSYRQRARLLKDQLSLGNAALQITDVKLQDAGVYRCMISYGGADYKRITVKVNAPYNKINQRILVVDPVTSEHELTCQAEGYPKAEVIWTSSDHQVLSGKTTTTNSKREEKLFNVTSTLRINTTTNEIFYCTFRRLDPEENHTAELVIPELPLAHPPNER

## COc1cc(-c2nccc(-c3cccc(-c4ccc(CNC[C@H](C)O)c(OC)n4)c3Cl)c2Cl)cc2c1CN(C[C@H](C)O)CC2 [Compound 214, (S)-1-(((6-(2-chloro-3-(3-chloro-2-(2-((S)-2-hydroxypropyl)-8-methoxy-1,2,3,4-tetrahydroisoquinolin-6-yl)pyridin-4-yl)phenyl)-2-methoxypyridin-3-yl)methyl)amino)propan-2-ol]
[1]
  IC50: 4.31 nM
[2]
  EC50: 27 nM

## COc1cc(-c2nccc(-c3cccc(-c4ccc(CN[C@H]5C[C@](C)(O)C5)c(OC)n4)c3Cl)c2Cl)cc2c1CN(C[C@H](C)O)CC2 [Compound 215, (1r,3r)-3-(((6-(2-chloro-3-(3-chloro-2-(2-((S)-2-hydroxypropyl)-8-methoxy-1,2,3,4-tetrahydroisoquinolin-6-yl)pyridin-4-yl)phenyl)-2-methoxypyridin-3-yl)methyl)amino)-1-methylcyclobutan-1-ol]
[1]
  IC50: 5.58 nM
[2]
  EC50: 25.5 nM

## COc1cc(-c2nccc(-c3cccc(-c4ccc(CNC[C@@H]5CCCO5)c(OC)n4)c3Cl)c2Cl)cc2c1CN(C[C@H](C)O)CC2 [Compound 216, (S)-1-(6-(3-chloro-4-(2-chloro-3-(6-methoxy-5-(((((S)-tetrahydrofuran-2-yl)methyl)amino)methyl)pyridin-2-yl)phenyl)pyridin-2-yl)-8-methoxy-3,4-dihydroisoquinolin-2(1H)-yl)propan-2-ol]
[1]
  IC50: 4.51 nM
[2]
  EC50: 271 nM

## COc1cc(-c2nccc(-c3cccc(-c4ccc(CN5CC(C)(O)C5)c(OC)n4)c3Cl)c2Cl)cc2c1CN(C[C@H](C)O)CC2 [Compound 217, (S)-1-((6-(2-chloro-3-(3-chloro-2-(2-(2-hydroxypropyl)-8-methoxy-1,2,3,4-tetrahydroisoquinolin-6-yl)pyridin-4-yl)phenyl)-2-methoxypyridin-3-yl)methyl)-3-methylazetidin-3-ol]
[1]
  IC50: 2.01 nM
[2]
  EC50: 38.2 nM

## COC(=O)CNCc1ccc(-c2cccc(-c3ccnc(-c4cc5c(c(OC)c4)CN(C[C@H](C)O)CC5)c3Cl)c2Cl)nc1OC [Compound 218, methyl (S)-((6-(2-chloro-3-(3-chloro-2-(2-(2-hydroxypropyl)-8-methoxy-1,2,3,4-tetrahydroisoquinolin-6-yl)pyridin-4-yl)phenyl)-2-methoxypyridin-3-yl)methyl)glycinate]
[1]
  IC50: 7.12 nM
[2]
  EC50: 601 nM

## COc1cc(-c2nccc(-c3cccc(-c4ccc5c(CN6CC7(CNC(=O)C7)C6)cn(C)c5n4)c3Cl)c2Cl)ccc1CNC[C@@H]1CCC(=O)N1 [Compound 219, (S)-2-((6-(2-chloro-3-(3-chloro-2-(3-methoxy-4-((((5-oxopyrrolidin-2-yl)methyl)amino)methyl)phenyl)pyridin-4-yl)phenyl)-1-methyl-1H-pyrrolo[2,3-b]pyridin-3-yl)methyl)-2,6-diazaspiro[3.4]octan-7-one]
[1]
  IC50: 2.73 nM
[2]
  EC50: 22.2 nM

## CNCc1ccc(-c2cccc(-c3ccnc(-c4ccc(CNC[C@@H](O)CC(=O)O)c(OC)c4)c3Cl)c2Cl)nc1OC [Compound 220, (S)-4-((4-(3-chloro-4-(2-chloro-3-(6-methoxy-5-((methylamino)methyl)pyridin-2-yl)phenyl)pyridin-2-yl)-2-methoxybenzyl)amino)-3-hydroxybutanoic acid]
[1]
  IC50: 2.18 nM
[2]
  EC50: 76.1 nM

## CNCc1ccc(-c2cccc(-c3ccnc(-c4ccc(CNCCC(=O)O)c(OC)c4)c3Cl)c2Cl)nc1OC [Compound 221, 3-((4-(3-chloro-4-(2-chloro-3-(6-methoxy-5-((methylamino)methyl)pyridin-2-yl)phenyl)pyridin-2-yl)-2-methoxybenzyl)amino)propanoic acid]
[1]
  IC50: 0.2 nM
[2]
  EC50: 64.4 nM

## COc1nc(-c2ccnc(-c3cccc4c3CC[C@@H]4Nc3nc(OC)c(CNC[C@@H]4CCC(=O)N4)cc3C(F)(F)F)c2Cl)ccc1CNC[C@@H]1CCC(=O)N1 [Compound 223, (S)-5-((((3′-chloro-6-methoxy-2′-((S)-1-((6-methoxy-5-(((((S)-5-oxopyrrolidin-2-yl)methyl)amino)methyl)-3-(trifluoromethyl)pyridin-2-yl)amino)-2,3-dihydro-1H-inden-4-yl)-[2,4′-bipyridin]-5-yl)methyl)amino)methyl)pyrrolidin-2-one]
[1]
  IC50: 7.24 nM
[2]
  EC50: 16.7 nM

## CNCc1ccc(-c2ccnc(-c3cccc4c3CC[C@@H]4Nc3nc(OC)c(CNC)cc3C(F)(F)F)c2Cl)nc1OC [Compound 224, (S)-N-(4-(3′-chloro-6-methoxy-5-((methylamino)methyl)-[2,4′-bipyridin]-2′-yl)-2,3-dihydro-1H-inden-1-yl)-6-methoxy-5-((methylamino)methyl)-3-(trifluoromethyl)pyridin-2-amine]
[1]
  IC50: 8.22 nM
[2]
  EC50: ≥ 10000 nM

## COc1nc(-c2ccnc(-c3cccc4c3CC[C@@H]4Nc3nc(OC)c(CN[C@H]4C[C@](C)(O)C4)cc3C(F)(F)F)c2Cl)ccc1CN[C@H]1C[C@](C)(O)C1 [Compound 225, (1S,3r)-3-(((3′-chloro-2′-((S)-1-((5-((((1r,3S)-3-hydroxy-3-methylcyclobutyl)amino)methyl)-6-methoxy-3-(trifluoromethyl)pyridin-2-yl)amino)-2,3-dihydro-1H-inden-4-yl)-6-methoxy-[2,4′-bipyridin]-5-yl)methyl)amino)-1-methylcyclobutan-1-ol]
[1]
  IC50: 8.2 nM
[2]
  EC50: ≥ 10000 nM

## CNCc1ccc(-c2cccc(-c3ccnc(-c4ccc(CN5CC[C@H](C(=O)O)C5)c(OC)c4)c3Cl)c2Cl)nc1OC [Compound 226, (S)-1-(4-(3-chloro-4-(2-chloro-3-(6-methoxy-5-((methylamino)methyl)pyridin-2-yl)phenyl)pyridin-2-yl)-2-methoxybenzyl)pyrrolidine-3-carboxylic acid]
[1]
  IC50: 0.27 nM
[2]
  EC50: 62.7 nM

## CNCc1ccc(-c2cccc(-c3ccnc(-c4ccc(CN5CC6(CC(C(=O)O)C6)C5)c(OC)c4)c3Cl)c2Cl)nc1OC [Compound 227, 2-(4-(3-chloro-4-(2-chloro-3-(6-methoxy-5-((methylamino)methyl)pyridin-2-yl)phenyl)pyridin-2-yl)-2-methoxybenzyl)-2-azaspiro[3.3]heptane-6-carboxylic acid]
[1]
  IC50: 5.25 nM
[2]
  EC50: 31.3 nM

## CNCc1ccc(-c2cccc(-c3ccnc(-c4ccc(CNCC56CC(C(=O)O)(C5)C6)c(OC)c4)c3Cl)c2Cl)nc1OC [Compound 228, 3-(((4-(3-chloro-4-(2-chloro-3-(6-methoxy-5-((methylamino)methyl)pyridin-2-yl)phenyl)pyridin-2-yl)-2-methoxybenzyl)amino)methyl)bicyclo[1.1.1]pentane-1-carboxylic acid]
[1]
  IC50: 0.23 nM
[2]
  EC50: 75.5 nM

## COc1cc(-c2nccc(-c3cccc(-c4ccc(CNCC(=O)O)c(OC)n4)c3Cl)c2Cl)cc2c1CN(C[C@H](C)O)CC2 [Compound 229, (S)-((6-(2-chloro-3-(3-chloro-2-(2-(2-hydroxypropyl)-8-methoxy-1,2,3,4-tetrahydroisoquinolin-6-yl)pyridin-4-yl)phenyl)-2-methoxypyridin-3-yl)methyl)glycine]
[1]
  IC50: 1.13 nM
[2]
  EC50: 244 nM

## COc1nc(-c2cccc(-c3ccnc(-c4ccc5c(c4)CNC5)c3Cl)c2Cl)ccc1CN1CC2(CNC(=O)C2)C1 [Compound 230, 2-((6-(2-chloro-3-(3-chloro-2-(isoindolin-5-yl)pyridin-4-yl)phenyl)-2-methoxypyridin-3-yl)methyl)-2,6-diazaspiro[3.4]octan-7-one]
[1]
  IC50: 10.8 nM
[2]
  EC50: 392 nM

## COc1cc(-c2nccc(-c3ccnc(-c4cc5c(c(OC)c4)CN(C[C@@H]4CCC(=O)N4)CC5)c3Cl)c2Cl)cc2c1CN(C[C@@H]1CCC(=O)N1)CC2 [Compound 266, (5S,5'S)-5,5′-(((3,3′-Dichloro-[4,4′-bipyridine]-2,2′-diyl)bis(8-methoxy-3,4-dihydroisoquinoline-6,2(1H)-diyl))bis(methylene))bis(pyrrolidin-2-one)]
[1]
  IC50: 18.4 nM
[2]
  EC50: 439 nM

## COC(=O)[C@H](CCO)NCc1ncc(-c2nccc(-c3cccc(-c4ccc(CNC[C@@H]5CCC(=O)N5)c(OC)n4)c3Cl)c2Cl)cc1OC [Compound 267, Methyl ((3-chloro-4-(2-chloro-3-(6-methoxy-5-(((((S)-5-oxopyrrolidin-2-yl)methyl)amino)methyl)pyridin-2-yl)phenyl)-5′-methoxy-[2,3′-bipyridin]-6′-yl)methyl)-L-homoserinate]
[1]
  IC50: 2.97 nM
[2]
  EC50: 639 nM

## COc1cc(-c2nccc(-c3cccc(-c4ccc(CNC[C@@H]5CCC(=O)N5)c(OC)n4)c3Cl)c2Cl)cnc1CN[C@H]1CCOC1=O [Compound 268, (S)-5-((((6-(2-Chloro-3-(3-chloro-5′-methoxy-6′-((((S)-2-oxotetrahydrofuran-3-yl)amino)methyl)-[2,3′-bipyridin]-4-yl)phenyl)-2-methoxypyridin-3-yl)methyl)-amino)methyl)pyrrolidin-2-one]
[1]
  IC50: 1.46 nM
[2]
  EC50: 669 nM

## COc1cc(-c2nccc(-c3ccnc(-c4cc(F)c(CNC5CCN(C(C)=O)CC5)c(OC)c4)c3Cl)c2Cl)cc(F)c1CNC1CCN(C(C)=O)CC1 [Compound 313, 1,1′-(((((3,3′-Dichloro-[4,4′-bipyridine]-2,2′-diyl)bis(2-fluoro-6-methoxy-4,1-phenylene))bis(methylene))bis(azanediyl))bis(piperidine-4,1-diyl))bis(ethan-1-one)]
[1]
  IC50: 4.6 nM
[2]
  EC50: 97.3 nM

## COc1cc(-c2nccc(-c3cccc(-c4ccc(CNC5CCN(C(C)=O)CC5)c(OC)n4)c3Cl)c2Cl)cnc1CNC1CCN(C(C)=O)CC1 [Compound 375, 1-(4-(((6-(3-(6′-(((1-Acetylpiperidin-4-yl)amino)methyl)-3-chloro-5′-methoxy-[2,3′-bipyridin]-4-yl)-2-chlorophenyl)-2-methoxypyridin-3-yl)methyl)amino)piperidin-1-yl)ethan-1-one]
[1]
  IC50: 1.24 nM
[2]
  EC50: 46.4 nM
